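1) Cells in 96-well plates. 2) Compound, 48 h, 5 concentrations. 3) Linear interpolation between surrounding doses. 4) Unreached endpoint = highest concentration. The concentration for 50% growth inhibition is given as GI50.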 The source made the active and inactive calls. Rule as the data show it: active = GI50 up to about 1.1 µM and inactive = higher.

Test systems include A498; CAKI-1; CCRF-CEM; DMS-273; DU-145; HCT-116; HCT-15; IGROV-1; K562; M14; MDA-MB-231; MDA-MB-435; MDA-N; NCI-H226; OVCAR-8; SNB-19; T47D; U-251; UACC-257; UACC-62.
Common to all, as to experiment: growth of human tumour cells (NCI), 48 h

In the case of `C=CCc1cc(-c2cc(CC=C)c(O)c(CN(CCCl)CCCl)c2)cc(CN(CCCl)CCCl)c1O`, the GI50 is 20.7 µM (inactive) in the experiment with A498; 8.22 µM (inactive) in the experiment on CAKI-1; 3.03 µM (inactive) with CCRF-CEM; 7.83 µM (inactive) in the experiment with DMS-273; 15.7 µM (inactive) in the experiment with DU-145; 11.1 µM (inactive) with HCT-116. The GI50 with HCT-15 is 15.5 µM; in the experiment with IGROV-1, 16.2 µM (inactive); in the experiment on K562, 32.8 µM (inactive); in the experiment on M14, 15.4 µM (inactive); with MDA-MB-231, 18.6 µM (inactive); with MDA-MB-435 it was 15.4 µM (inactive). Further, the GI50 in the experiment with MDA-N is 15.2 µM (inactive); with NCI-H226 it was 15.6 µM (inactive); in the experiment on OVCAR-8 it was 12.1 µM (inactive); in the experiment on SNB-19 it was 19.1 µM (inactive); in the experiment with T47D, 8.55 µM (inactive); in the experiment on U-251 it was 10.8 µM (inactive). Also, the GI50 in the experiment on UACC-257 was 16 µM (inactive); with UACC-62, 7.89 µM (inactive).

Source of the values: ChEMBL document CHEMBL1201862, “PubChem BioAssay data set” (2004).
